{
  "source": "patent US10577363B2",
  "about": "“Substituted piperidine compounds” (EPIZYME, INC., priority 2014, dated 2020)",
  "data": [
    {"molecular_target": "SMYD3 (Homo sapiens (Human), UniProt Q9H7B4)", "test": "SMYD3 biochemical assay (SPA, 3H-SAM methylation of MEKK2 protein substrate)", "conditions": "read-out: SMYD3 Biochem IC50 (μM)*", "procedure,_shortened": "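Methylation of N-terminally GST-tagged MEKK2 by untagged full-length human SMYD3, using 3H-SAM, in pH 8.0 Tris buffer with TCEP, BSG and Tween 20; enzyme and compound sat 30 min at room temperature before substrate addition. Stopped with 100 uM (final) cold SAM; incorporation read by scintillation proximity as dpm/cpm.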", "units": {"IC50": "µM"}, "values": [
      {"smiles": "C[C@H]1CC(NC(=O)c2cc(C3CC3)on2)CCN1C(=O)C1(F)CCNCC1", "note": "(stereo partly drawn) [compound 207, 5-cyclopropyl-N-((2S)-1-(4-fluoropiperidine-4-carbonyl)-2-methylpiperidin-4-yl)isoxazole-3-carboxamide]", "IC50": 2.6},
      {"smiles": "C[C@@H]1C[C@@H](NC(=O)c2cc(C3CC3)on2)CCN1C(=O)CCCN", "note": "[compound 208, N-((2R,4S)-1-(4-aminobutanoyl)-2-methylpiperidin-4-yl)-5-cyclopropylisoxazole-3-carboxamide]", "IC50": 3.82},
      {"smiles": "C[C@@H]1C[C@@H](NC(=O)c2cc(C3CC3)on2)CCN1S(=O)(=O)CCCN", "note": "[compound 209, N-((2R,4S)-1-((3-aminopropyl)sulfonyl)-2-methylpiperidin-4-yl)-5-cyclopropylisoxazole-3-carboxamide]", "IC50": 0.1},
      {"smiles": "NCCCC(=O)N1C2CCCC1CC(NC(=O)c1cc(C3CC3)on1)C2", "note": "(stereo not drawn) [compound 211, N-(9-(4-aminobutanoyl)-9-azabicyclo[3.3.1]nonan-3-yl)-5-cyclopropylisoxazole-3-carboxamide]", "IC50": 5.85},
      {"smiles": "C[C@@H]1C[C@H](NC(=O)c2cc(C3CC3)on2)CCN1C(=O)CCCCN", "note": "[compound 212, N-((2R,4R)-1-(5-aminopentanoyl)-2-methylpiperidin-4-yl)-5-cyclopropylisoxazole-3-carboxamide]", "IC50": 0.838},
      {"smiles": "C[C@@H]1C[C@@H](NC(=O)c2cc(C3CC3)on2)CCN1S(=O)(=O)C1CC1", "note": "[compound 213, 5-cyclopropyl-N-((2R,4S)-1-(cyclopropylsulfonyl)-2-methylpiperidin-4-yl)isoxazole-3-carboxamide]", "IC50": "> 10"},
      {"smiles": "CNS(=O)(=O)N1CC[C@H](NC(=O)c2cc(C3CC3)on2)C[C@H]1C", "note": "[compound 214, 5-cyclopropyl-N-((2R,4S)-2-methyl-1-(N-methylsulfamoyl)piperidin-4-yl)isoxazole-3-carboxamide]", "IC50": "> 10"},
      {"smiles": "COCCS(=O)(=O)N1CC[C@H](NC(=O)c2cc(C3CC3)on2)C[C@H]1C", "note": "[compound 215, 5-cyclopropyl-N-((2R,4S)-1-((2-methoxyethyl)sulfonyl)-2-methylpiperidin-4-yl)isoxazole-3-carboxamide]", "IC50": "> 10"},
      {"smiles": "C[C@@H]1C[C@H](NC(=O)c2cc(C3CC3)on2)CCN1S(=O)(=O)C1CC1", "note": "[compound 216, 5-cyclopropyl-N-((2R,4R)-1-(cyclopropylsulfonyl)-2-methylpiperidin-4-yl)isoxazole-3-carboxamide]", "IC50": "> 10"},
      {"smiles": "CNS(=O)(=O)N1CC[C@@H](NC(=O)c2cc(C3CC3)on2)C[C@H]1C", "note": "[compound 217, 5-cyclopropyl-N-((2R,4R)-2-methyl-1-(N-methylsulfamoyl)piperidin-4-yl)isoxazole-3-carboxamide]", "IC50": 6.76},
      {"smiles": "CC(C)(C)C1CC(NC(=O)c2cc(C3CC3)on2)CCN1C(=O)CCCN", "note": "(stereo not drawn) [compound 219, N-(1-(4-aminobutanoyl)-2-(tert-butyl)piperidin-4-yl)-5-cyclopropylisoxazole-3-carboxamide]", "IC50": 6.32},
      {"smiles": "NCCCC(=O)N1CC[C@@H](NC(=O)c2cc(C3CC3)on2)[C@H](c2ccccc2)C1", "note": "[compound 220, N-((3R,4R)-1-(4-aminobutanoyl)-3-phenylpiperidin-4-yl)-5-cyclopropylisoxazole-3-carboxamide]", "IC50": 2.52},
      {"smiles": "NCCCC(=O)N1CC[C@H](NC(=O)c2cc(C3CC3)on2)[C@H](c2ccccc2)C1", "note": "[compound 221, N-((3R,4S)-1-(4-aminobutanoyl)-3-phenylpiperidin-4-yl)-5-cyclopropylisoxazole-3-carboxamide]", "IC50": "> 10"},
      {"smiles": "C[C@H]1CC(NC(=O)c2cc(C3CC3)on2)CCN1C(=O)C12C3C4C1C1C2C3C41N", "note": "(stereo partly drawn) [compound 222, N-((2S)-1-(4-aminocubane-1-carbonyl)-2-methylpiperidin-4-yl)-5-cyclopropylisoxazole-3-carboxamide]", "IC50": 4.64},
      {"smiles": "C[C@H]1CC(NC(=O)c2cc(C3CC3)on2)CCN1C(=O)CC1(O)CCNCC1", "note": "(stereo partly drawn) [compound 223, 5-cyclopropyl-N-((2S)-1-(2-(4-hydroxypiperidin-4-yl)acetyl)-2-methylpiperidin-4-yl)isoxazole-3-carboxamide]", "IC50": 7.19},
      {"smiles": "C[C@@H]1CC(NC(=O)c2cc(C3CC3)on2)CCN1C(=O)C1(C)CCNCC1", "note": "(stereo partly drawn) [compound 224, 5-cyclopropyl-N-((2R)-2-methyl-1-(4-methylpiperidine-4-carbonyl)piperidin-4-yl)isoxazole-3-carboxamide]", "IC50": 1.42},
      {"smiles": "C[C@@H]1C[C@@H](NC(=O)c2cc(C3CC3)on2)CCN1C(=O)CC(O)CN", "note": "(stereo partly drawn) [compound 225, N-((2R,4S)-1-(4-amino-3-hydroxybutanoyl)-2-methylpiperidin-4-yl)-5-cyclopropylisoxazole-3-carboxamide]", "IC50": 9.05},
      {"smiles": "C[C@H]1CC(NC(=O)c2cc(C3CC3)on2)CCN1C(=O)CC1CCCC(N)C1", "note": "(stereo partly drawn) [compound 226, N-((2S)-1-(2-(3-aminocyclohexyl)acetyl)-2-methylpiperidin-4-yl)-5-cyclopropylisoxazole-3-carboxamide]", "IC50": 2.38},
      {"smiles": "C[C@H]1C[C@@H](NC(=O)c2cc(C3CC3)on2)CCN1C(=O)CCCCN", "note": "[compound 228, N-((2S,4S)-1-(5-aminopentanoyl)-2-methylpiperidin-4-yl)-5-cyclopropylisoxazole-3-carboxamide]", "IC50": 1.28},
      {"smiles": "CCCS(=O)(=O)N1CC[C@H](NC(=O)c2cc(C3CC3)on2)C[C@@H]1C", "note": "[compound 229, 5-cyclopropyl-N-((2S,4S)-2-methyl-1-(propylsulfonyl)piperidin-4-yl)isoxazole-3-carboxamide]", "IC50": 0.863},
      {"smiles": "CC(C)CS(=O)(=O)N1CC[C@H](NC(=O)c2cc(C3CC3)on2)C[C@@H]1C", "note": "[compound 230, 5-cyclopropyl-N-((2S,4S)-1-(isobutylsulfonyl)-2-methylpiperidin-4-yl)isoxazole-3-carboxamide]", "IC50": 0.472},
      {"smiles": "CCOC(=O)CS(=O)(=O)N1CC[C@H](NC(=O)c2cc(C3CC3)on2)C[C@@H]1C", "note": "[compound 231, ethyl 2-(((2S,4S)-4-(5-cyclopropylisoxazole-3-carboxamido)-2-methylpiperidin-1-yl)sulfonyl)acetate]", "IC50": 1.17},
      {"smiles": "C[C@H]1C[C@@H](NC(=O)c2cc(C3CC3)on2)CCN1S(=O)(=O)CC(F)(F)F", "note": "[compound 232, 5-cyclopropyl-N-((2S,4S)-2-methyl-1-((2,2,2-trifluoroethyl)sulfonyl)piperidin-4-yl)isoxazole-3-carboxamide]", "IC50": 3.26},
      {"smiles": "COCCS(=O)(=O)N1CC[C@H](NC(=O)c2cc(C3CC3)on2)C[C@@H]1C", "note": "[compound 233, 5-cyclopropyl-N-((2S,4S)-1-((2-methoxyethyl)sulfonyl)-2-methylpiperidin-4-yl)isoxazole-3-carboxamide]", "IC50": 2.36},
      {"smiles": "C[C@H]1C[C@@H](NC(=O)c2cc(C3CC3)on2)CCN1S(=O)(=O)c1cn(C)cn1", "note": "[compound 234, 5-cyclopropyl-N-((2S,4S)-2-methyl-1-((1-methyl-1H-imidazol-4-yl)sulfonyl)piperidin-4-yl)isoxazole-3-carboxamide]", "IC50": 1.24},
      {"smiles": "C[C@H]1C[C@@H](NC(=O)c2cc(C3CC3)on2)CCN1S(=O)(=O)CCC(F)(F)F", "note": "[compound 236, 5-cyclopropyl-N-((2S,4S)-2-methyl-1-((3,3,3-trifluoropropyl)sulfonyl)piperidin-4-yl)isoxazole-3-carboxamide]", "IC50": 1.04},
      {"smiles": "CC(C)OCCS(=O)(=O)N1CC[C@H](NC(=O)c2cc(C3CC3)on2)C[C@@H]1C", "note": "[compound 237, 5-cyclopropyl-N-((2S,4S)-1-((2-isopropoxyethyl)sulfonyl)-2-methylpiperidin-4-yl)isoxazole-3-carboxamide]", "IC50": 3.46},
      {"smiles": "CCCS(=O)(=O)N1CC[C@H](NC(=O)c2cc(C3CC3)on2)C[C@H]1C", "note": "[compound 238, 5-cyclopropyl-N-((2R,4S)-2-methyl-1-(propylsulfonyl)piperidin-4-yl)isoxazole-3-carboxamide]", "IC50": "> 10"},
      {"smiles": "CC(C)CS(=O)(=O)N1CC[C@H](NC(=O)c2cc(C3CC3)on2)C[C@H]1C", "note": "[compound 239, 5-cyclopropyl-N-((2R,4S)-1-(isobutylsulfonyl)-2-methylpiperidin-4-yl)isoxazole-3-carboxamide]", "IC50": "> 10"},
      {"smiles": "CCCCS(=O)(=O)N1CC[C@H](NC(=O)c2cc(C3CC3)on2)C[C@H]1C", "note": "[compound 240, N-((2R,4S)-1-(butylsulfonyl)-2-methylpiperidin-4-yl)-5-cyclopropylisoxazole-3-carboxamide]", "IC50": "> 10"},
      {"smiles": "C[C@@H]1C[C@@H](NC(=O)c2cc(C3CC3)on2)CCN1S(=O)(=O)c1ccc(Cl)nc1", "note": "[compound 241, N-((2R,4S)-1-((6-chloropyridin-3-yl)sulfonyl)-2-methylpiperidin-4-yl)-5-cyclopropylisoxazole-3-carboxamide]", "IC50": "> 10"},
      {"smiles": "C[C@@H]1C[C@@H](NC(=O)c2cc(C3CC3)on2)CCN1S(=O)(=O)N1CCCC1", "note": "[compound 242, 5-cyclopropyl-N-((2R,4S)-2-methyl-1-(pyrrolidin-1-ylsulfonyl)piperidin-4-yl)isoxazole-3-carboxamide]", "IC50": "> 10"},
      {"smiles": "C[C@@H]1C[C@@H](NC(=O)c2cc(C3CC3)on2)CCN1S(=O)(=O)N1CCN(C)CC1", "note": "[compound 243, 5-cyclopropyl-N-((2R,4S)-2-methyl-1-((4-methylpiperazin-1-yl)sulfonyl)piperidin-4-yl)isoxazole-3-carboxamide]", "IC50": 1.76},
      {"smiles": "CCOC(=O)CS(=O)(=O)N1CC[C@@H](NC(=O)c2cc(C3CC3)on2)C[C@@H]1C", "note": "[compound 245, ethyl 2-(((2S,4R)-4-(5-cyclopropylisoxazole-3-carboxamido)-2-methylpiperidin-1-yl)sulfonyl)acetate]", "IC50": "> 10"},
      {"smiles": "C[C@H]1C[C@H](NC(=O)c2cc(C3CC3)on2)CCN1S(=O)(=O)CC(F)(F)F", "note": "[compound 246, 5-cyclopropyl-N-((2S,4R)-2-methyl-1-((2,2,2-trifluoroethyl)sulfonyl)piperidin-4-yl)isoxazole-3-carboxamide]", "IC50": "> 10"},
      {"smiles": "C[C@H]1C[C@H](NC(=O)c2cc(C3CC3)on2)CCN1S(=O)(=O)C1CC1", "note": "[compound 247, 5-cyclopropyl-N-((2S,4R)-1-(cyclopropylsulfonyl)-2-methylpiperidin-4-yl)isoxazole-3-carboxamide]", "IC50": "> 10"}
    ]}
  ]
}
